What was measured:
[1] = system: HCT-116; assay: Cytotoxicity assay (SRB), HCT-116; type: cell-based; conditions: Homo sapiens, HCT-116, 72 h, HCT116 cells, 3 days, SRB; read-out: In Vitro Cellular Activity IC50 HCT116
In short: (§1)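 BT474 (12000 cells/well) was treated for 6 days, whereas HCT-116 (4000), LoVo (6000) and MCF-7 (6000) were treated for 3 days, all in RPMI 1640 containing 5% FBS. Surviving-cell percentage came from SRB dye binding measured at 540 nm.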

[2] = system: LoVo; assay: Cytotoxicity assay (SRB), LoVo; type: cell-based; conditions: Homo sapiens, LoVo, 72 h, LoVo cells, 3 days, SRB; read-out: In Vitro Cellular Activity IC50 LOVO
In short: as §1

[3] = molecular target: T1, cyclin E/CDK2 enzyme (Homo sapiens, UniProt P24941); assay: CDK2 ELISA kinase assay (phospho-Rb ser 795 detection); type: biochemical; conditions: In Vitro Enzyme Assay, cyclin E/CDK2, read-out: CDK2 IC50
T1 construct: made in house; host or cells: Sf9 insect cells, recombinant baculovirus
In short: (§2)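 Wells were coated overnight with GST-Rb C-terminal fragment, then blocked. Compound (10 ug/ml final) and cyclin/CDK enzyme from baculovirus-infected Sf9 cells with 200 μM ATP reacted 1 h at 30° C. Ser795 phosphorylation was detected by ELISA at 450 nm.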

[4] = system: MCF-7; assay: Cytotoxicity assay (SRB), MCF-7; type: cell-based; conditions: Homo sapiens, MCF7, 72 h, MCF-7 cells, 3 days, SRB; read-out: In Vitro Cellular Activity IC50 MCF-7
In short: as §1

[5] = molecular target: T2, cyclin B/CDK1 enzyme (Homo sapiens, UniProt P06493); assay: CDK1 ELISA kinase assay (phospho-Rb ser 795 detection); type: biochemical; conditions: In Vitro Enzyme Assay, cyclin B/CDK1, read-out: CDK1 IC50
T2 construct: purchased New England BioLabs; host or cells: Sf9 insect cells, recombinant baculovirus
T2 sequence (P06493 whole entry): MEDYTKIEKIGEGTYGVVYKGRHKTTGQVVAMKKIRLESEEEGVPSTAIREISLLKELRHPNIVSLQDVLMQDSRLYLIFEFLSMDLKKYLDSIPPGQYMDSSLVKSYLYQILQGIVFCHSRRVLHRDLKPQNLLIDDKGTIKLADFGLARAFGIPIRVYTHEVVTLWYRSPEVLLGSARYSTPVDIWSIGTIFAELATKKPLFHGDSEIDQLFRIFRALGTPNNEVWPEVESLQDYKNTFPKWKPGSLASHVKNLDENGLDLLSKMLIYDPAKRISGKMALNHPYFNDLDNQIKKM
T2 sequence (P14635 whole entry partner): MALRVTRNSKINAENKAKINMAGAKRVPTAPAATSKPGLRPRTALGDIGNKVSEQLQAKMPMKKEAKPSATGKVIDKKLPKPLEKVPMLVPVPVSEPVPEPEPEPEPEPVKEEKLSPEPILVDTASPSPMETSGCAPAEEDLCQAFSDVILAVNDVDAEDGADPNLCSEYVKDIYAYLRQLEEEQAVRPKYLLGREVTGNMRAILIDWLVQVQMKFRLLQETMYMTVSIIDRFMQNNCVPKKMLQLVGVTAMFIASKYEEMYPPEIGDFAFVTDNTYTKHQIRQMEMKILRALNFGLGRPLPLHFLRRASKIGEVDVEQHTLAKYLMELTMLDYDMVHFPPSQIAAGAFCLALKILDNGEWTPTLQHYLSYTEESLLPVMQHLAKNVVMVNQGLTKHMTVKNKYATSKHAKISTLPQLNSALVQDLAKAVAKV
In short: as §2

[6] = molecular target: T3, cyclin D1/cdk 4 enzyme (Homo sapiens, UniProt P11802); assay: CDK4 ELISA kinase assay (phospho-Rb ser 795 detection); type: biochemical; conditions: In Vitro Enzyme Assay, cyclin D1/cdk 4, read-out: CDK4 IC50
T3 construct: made in house; host or cells: Sf9 insect cells, recombinant baculovirus
T3 sequence (P11802 whole entry, species assumed): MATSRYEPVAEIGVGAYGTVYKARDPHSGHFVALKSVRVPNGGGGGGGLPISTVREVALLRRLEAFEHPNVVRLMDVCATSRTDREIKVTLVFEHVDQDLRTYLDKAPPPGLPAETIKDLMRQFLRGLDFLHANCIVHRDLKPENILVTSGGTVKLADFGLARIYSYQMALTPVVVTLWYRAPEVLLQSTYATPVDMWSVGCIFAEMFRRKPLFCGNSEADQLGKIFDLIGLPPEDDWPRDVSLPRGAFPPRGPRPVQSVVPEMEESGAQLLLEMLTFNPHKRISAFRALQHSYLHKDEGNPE
T3 sequence (P24385 whole entry partner, species assumed): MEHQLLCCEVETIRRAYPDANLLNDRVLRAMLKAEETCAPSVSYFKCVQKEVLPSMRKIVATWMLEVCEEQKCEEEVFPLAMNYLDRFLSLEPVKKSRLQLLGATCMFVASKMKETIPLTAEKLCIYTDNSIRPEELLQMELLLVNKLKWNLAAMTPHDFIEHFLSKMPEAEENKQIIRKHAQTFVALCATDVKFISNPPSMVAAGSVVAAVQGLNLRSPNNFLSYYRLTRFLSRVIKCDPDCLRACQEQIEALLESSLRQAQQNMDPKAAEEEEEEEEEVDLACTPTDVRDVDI
In short: as §2

[7] = system: BT474; assay: Cytotoxicity assay (SRB), BT474; type: cell-based; conditions: Homo sapiens, BT-474, 144 h, BT474 cells, 6 days, SRB; read-out: In Vitro Cellular Activity IC50 BT474
In short: as §1

Structure (SMILES)	IC50 [3] [µM]	IC50 [5] [µM]	IC50 [6] [µM]	IC50 [1] [µM]	IC50 [2] [µM]	IC50 [4] [µM]	IC50 [7] [µM]
COc1ccccc1-c1ccc2c(c1)C(=CNCc1ccc(O)c(O)c1)C(=O)NC2=O [Example 766, 4-[(3,4-Dihydroxy-benzylamino)-methylene]-6-(2-methoxy-phenyl)-4H-isoquinoline-1,3-dione]	14.4	43.4	1.29	21.6	32.3	22.1	33.9
O=C1NC(=O)c2ccc(-c3ccc(F)cc3)cc2C1=CNCc1ccc(O)c(O)c1 [Example 767, 4-[(3,4-Dihydroxy-benzylamino)-methylene]-6-(4-fluoro-phenyl)-4H-isoquinoline-1,3-dione]	9	15.4	0.17	25.9	21.4	25.2	44
O=C1NC(=O)c2ccc(-c3cccc(F)c3)cc2C1=CNCc1ccc(O)c(O)c1 [Example 768, 4-[(3,4-Dihydroxy-benzylamino)-methylene]-6-(3-fluoro-phenyl)-4H-isoquinoline-1,3-dione]	9.6	20.6	0.55	27.4	25.7	28.4	29.1
O=C1NC(=O)c2ccc(-c3ccccc3F)cc2C1=CNCc1ccc(O)c(O)c1 [Example 769, 4-[(3,4-Dihydroxy-benzylamino)-methylene]-6-(2-fluoro-phenyl)-4H-isoquinoline-3,3-dione]	3.9	14.7	0.03	13.4	15.5	17.9	17.9
O=C1NC(=O)c2ccc(-c3cccc(C(=O)O)c3)cc2C1=CNCc1ccc(O)c(O)c1 [Example 771, 3-{4-[(3,4-Dihydroxy-benzylamino)-methylene]-1,3-dioxo-1,2,3,4-tetrahydro-isoquinolin-6-yl}-benzoic acid]	10	26.5	0.82	39.5	48	> 50	33.3
O=C1NC(=O)c2ccc(-c3ccc(C(F)(F)F)cc3)cc2C1=CNCc1ccc(O)c(O)c1 [Example 772, 4-[(3,4-Dihydroxy-benzylamino)-methylene]-6-(4-trifluoromethyl-phenyl)-4H-isoquinoline-1,3-dione]	10.7	40.6	0.51	15.6	15.4	12.2	28.1
O=C1NC(=O)c2ccc(-c3cccc(C(F)(F)F)c3)cc2C1=CNCc1ccc(O)c(O)c1 [Example 773, 4-[(3,4-Dihydroxy-benzylamino)-methylene]-6-(3-trifluoromethyl-phenyl)-4H-isoquinoline-1,3-dione]	16.5	> 50	1.18	13.7	14.4	12.6	20.9
CC(=O)c1cccc(-c2ccc3c(c2)C(=CNCc2ccc(O)c(O)c2)C(=O)NC3=O)c1 [Example 776, 6-(3-Acetyl-phenyl)-4-[(3,4-dihydroxy-benzylamino)-methylene]-4H-isoquinoline-1,3-dione]	13.8	> 50	0.24	15.2	10.3	11.2	17.2
O=C1NC(=O)c2ccc(-c3ccc(Cl)cc3)cc2C1=CNCc1ccc(O)c(O)c1 [Example 778, 6-(4-Chloro-phenyl)-4-[(3,4-dihydroxy-benzylamino)-methylene]-4H-isoquinoline-1,3-dione]	5.6	27.7	0.12	11.9	9.6	10.3	27.3

Continued, in another order:

IC50 [3] [µM]	IC50 [5] [µM]	IC50 [6] [µM]	Structure (SMILES)	IC50 [1] [µM]	IC50 [2] [µM]	IC50 [4] [µM]	IC50 [7] [µM]
31.1	> 50	0.74	O=C1NC(=O)c2ccc(-c3cccc(Cl)c3)cc2C1=CNCc1ccc(O)c(O)c1 [Example 779, 6-(3-Chloro-phenyl)-4-[(3,4-dihydroxy-benzylamino)-methylene]-4H-isoquinoline-1,3-dione]	15	14.1	12.7	20.3
3.8	23.1	0.67	O=C1NC(=O)c2ccc(-c3ccccc3Cl)cc2C1=CNCc1ccc(O)c(O)c1 [Example 780, 6-(2-Chloro-phenyl)-4-[(3,4-dihydroxy-benzylamino)-methylene]-4H-isoquinoline-1,3-dione]	14.4	18.2	18.9	17.7
27.7	> 50	0.74	Cc1ccc(-c2ccc3c(c2)C(=CNCc2ccc(O)c(O)c2)C(=O)NC3=O)cc1 [Example 781, 4-[(3,4-Dihydroxy-benzylamino)-methylene]-6-p-tolyl-4H-isoquinoline-1,3-dione]	14.4	14	12.7	23.3
7.3	27.7	0.06	N#Cc1ccc(-c2ccc3c(c2)C(=CNCc2ccc(O)c(O)c2)C(=O)NC3=O)cc1 [Example 784, 4-{4-[(3,4-Dihydroxy-benzylamino)-methylene]-1,3-dioxo-1,2,3,4-tetrahydro-isoquinolin-6-yl}-benzonitrile]	8.7	35.1	13.8	> 50
38	> 50	1.2	N#Cc1cccc(-c2ccc3c(c2)C(=CNCc2ccc(O)c(O)c2)C(=O)NC3=O)c1 [Example 785, 3-{4-[(3,4-Dihydroxy-benzylamino)-methylene]-1,3-dioxo-1,2,3,4-tetrahydro-isoquinolin-6-yl}-benzonitrile]	> 50	> 50	46.2	> 50
22.6	> 50	0.47	CSc1ccc(-c2ccc3c(c2)C(=CNCc2ccc(O)c(O)c2)C(=O)NC3=O)cc1 [Example 792, 4-[(3,4-Dihydroxy-benzylamino)-methylene]-6-(4-methylsulfanyl-phenyl)-4H-isoquinoline-1,3-dione]	14.7	15.6	13.1	41
> 50	> 50	0.9	CN1CCN(c2ccc(NC=C3C(=O)NC(=O)c4ccc(C=CCCCO)cc43)cc2)CC1 [Example 797, 6-(5-Hydroxy-pent-1-enyl)-4-{[4-(4-methyl-piperazin-1-yl)-phenylamino]-methylene}-4H-isoquinoline-1,3-dione]	6.5	6.3	6.7	19.3
18	37.1	1	COc1cccc(CC=Cc2ccc3c(c2)C(=CNCc2ccc(O)c(O)c2)C(=O)NC3=O)c1O [Example 804, 4-[(3,4-Dihydroxy-benzylamino)-methylene]-6-[3-(2-hydroxy-3-methoxy-phenyl)-propenyl]-4H-isoquinoline-1,3-dione]	6.1	12.4	9.8	9.7
> 50	> 50	0.38	CN1CCN(c2ccc(NC=C3C(=O)NC(=O)c4ccc(-c5ccc(CO)cc5)cc43)cc2)CC1 [Example 808, 6-(4-Hydroxymethyl-phenyl)-4-{[4-(4-methyl-piperazin-1-yl)-phenylamino]-methylene}-4H-isoquinoline-1,3-dione]	1.6	5.4	8.6	8
28.3	> 50	0.13	O=C1NC(=O)c2ccc(-c3ccc4c(c3)OCO4)cc2C1=CNCc1ccc(O)c(O)c1 [Example 812, 6-Benzo[1,3]dioxol-5-yl-4-[(3,4-dihydroxy-benzylamino)-methylene]-4H-isoquinoline-1,3-dione]	44.7	> 50	49.8	> 50
33.1	> 50	0.31	COc1ccc(-c2ccc3c(c2)C(=CNCc2ccc(O)c(O)c2)C(=O)NC3=O)cc1OC [Example 813, 4-[(3,4-Dihydroxy-benzylamino)-methylene]-6-(3,4-dimethoxy-phenyl)-4H-isoquinoline-1,3-dione]	19.8	12.7	29.7	35.8
